# Test results published in patent publication US11419870B2, “Intermittent dosing of MDM2 inhibitor” (Novartis AG, priority 2014, dated 2022).
# Tests used:
# SJSA-1 tumor = assay: Efficacy on SJSA-1 tumor-bearing nude rat (tumor volume); format: in vivo
# Experimental: (§1) Subcutaneous tumors were induced by concentrating 1.0×10^7 SJSA-1 cells in 50% Matrigel® and injecting in the right flank of Harlan nude rats. Efficacy experiment could start 14 days post cell injection. […] The animals were treated either at a high dose (20 mg/kg i.v. or 27 mg/kg p.o.) once every 3 weeks (q3w) or at a high dose (15 mg/kg p.o.) followed 24 h later by a daily low dose treatment (3 mg/kg p.o., 2 weeks on/2 weeks off).
# The tumor volume (TVol) and body-weight (BW) of the animal were measured three times per week allowing calculation at any particular time-point relative to the day of initiation of treatment (day 0) of the percentage change in TVol (Δ% TVol). Tumor response was quantified by the change in tumor volume (endpoint minus starting value in mm^3) as the T/C i.e.
# [formula] In the case of a tumor regression or to assess the percentage of change in TVol, the tumor response was quantified by the percentage of regression of the starting TVol, ie
# [1] = Pharmacokinetics of Compound A in SJSA-1 tumor-bearing rat (plasma, tumor, tissues; UPLC/MS-MS); format: in vivo, nude rat
# Experimental: as §1
# (§2) At the times indicated, animals were anaesthetized by exposure to 2-3% v/v isofluorane in medical oxygen: • Either the animal was killed without recovering from anesthetic after blood sampling. Blood was collected into commercially prepared EDTA coated tubes (Milian, cat #TOM-14C) in order to extract plasma. The tissues were excised, weighed and rapidly frozen in liquid nitrogen. • Or a tumor biopsy was collected by using a biopsy gun and flushing the needle with RLT buffer in Barney rubble tubes (Covaris, cat #520048). In addition, 20 μl of blood may have been collected from the tail vein and diluted in 20 μl of water. After recovery of anesthesia, animals were transferred in their respective cages.
# Tissues were homogenized in an equal volume of HPLC-Water (Water for chromatography, Merck) using the Fast Prep®-24 system (M.P. Biomedicals, Irvine, Calif., USA). Following addition of 25 μl of internal standard mixture (1 μg/ml) to analytical aliquots (25 μl) of plasma or tissues homogenate the proteins were precipitated by the addition of 200 μl acetonitrile. The supernatant were transferred in a fresh vial. After evaporation to dryness the samples were re-dissolved in 60 μl acetonitrile/water (1/1 v/v). An aliquot (5 μl) of this solution was separated on a ACQUITY UPLC BEH C18 column (Waters™ 1.7 μm particle size, 2.1×50 mm) with a mobile phase consisting of a mixture of 0.1% formic acid in water (solvent A) and 0.1% formic acid in acetonitrile (solvent B). Gradient programming was used with a flow rate of 600 μl/min. After equilibration with 95% solvent A, 5 μl of sample was injected. Following a latency period of 0.25 min, the sample was eluted with a linear gradient of 5-100% solvent B over a period of 0.65 minutes followed by a 0.35 minutes hold. The column was prepared for the next sample by re-equilibrating over 0.25 minutes to the starting conditions. The column eluent was directly introduced into the ion source of the triple quadrupole mass spectrometer TQD™ (Waters Corporation, Milford, Mass., USA) controlled by Masslynx™ 4.1 software. Electrospray positive ionization (ESI+) multiple reaction monitoring was used for the MS/MS detection of the analyte. […] The limit of quantification (LOQ) for the compound was set to 0.7 ng/mL (CV and overall bias less than 30%). Regression analysis and further calculations were performed using QuanLynx™ 4.1 (Micromass) and Excel™ 2007 (Microsoft). Concentrations of unknown samples were back-calculated based on the peak area ratios of analyte/IS from a calibration curve constructed using calibration samples spiked in blank plasma or tissue obtained from animals treated with vehicle.
# Areas under the plasma concentration versus time curves (AUC) were calculated from the mean values with linear trapezoidal rule, and further relevant parameters by using a non-compartmental model for extravascular dosing (WinNonlin® Professional Version 5.2, Pharsight corp., CA, US).
# Cdkn1 a (p21) = assay: Pharmacodynamic qRT-PCR: p21 mRNA induction in SJSA-1 tumor; format: in vivo, nude rat
# Source text: as §2
# Frozen tissues were cryogenic dry pulverized and biopsies were sonicated using the CryoPrep™ system (model CP-02) from Covaris. More specifically, frozen tissues were transferred to disposable tubes called TissueTubes™, placed in the CryoPrep™ system and then pulverized using the appropriate impact setting. The resulting powder was collected with a spatula and weighed for further processing (mRNA purification or quantification of compound in tissues). The biopsies were flushed in a Barney rubble glass tubes with 350 μl of RLT buffer and placed in the Covaris for sonication (1 min per biopsy). The resulting lysate was transferred into a QIAshredder (79654, Qiagen) column for RNA extraction.
# Total RNA was purified from cell pellets using the QIAshredder (79654, Qiagen) and RNeasy Mini Kit (74106, Qiagen) according to the manufacturer's instructions, with the exception that no DNA digestion was performed. Total RNA was eluted with 50 μL of RNase-free water. Total RNA was quantitated using the spectrophotometer ND-1000 Nanodrop®. The qRT-PCR (Quantitative Reverse Transcriptase Polymerase Chain Reaction) was set up in triplicate per sample using the One-Step RT qPCR Master Mix Plus (RT-QPRT-032X, Eurogentec), with either control primers and primers for the target, namely TaqMan Gene Expression assays (20× probe dye FAM™ (or VIC)-TAMRA (or MGB); Applied Biosystems) listed in Table 1.
# [2] = i.v. q3w 20 mg/kg, three weeks post first treatment
smiles,measurement,setting,value
"COc1ncc(-c2nc3c(n2C(C)C)[C@H](c2ccc(Cl)cc2)N(c2cc(Cl)cn(C)c2=O)C3=O)c(OC)n1 [Compound A, (S)-5-(5-Chloro-1-methyl-2-oxo-1,2-dihydro-pyridin-3-yl)-6-(4-chloro-phenyl)-2-(2,4-dimethoxy-pyrimidin-5-yl)-1-isopropyl-5,6-dihydro-1H-pyrrolo[3,4-d]imidazol-4-one]",tumor regression,"SJSA-1 tumor; i.v. q3w 20 mg/kg, after the second treatment",100%
same,rats with partial response (more than 50% regression),SJSA-1 tumor; [2],2
same,tumor regression on average,SJSA-1 tumor; [2],6%
same,SJSA-1 tumor regression,"SJSA-1 tumor; p.o. q3w 27 mg/kg, after two cycles (after the second treatment)",27%
same,Cmax and AUC0-24 h in blood,"[1]; after first p.o. treatment, 20 and 27 mg/kg q3w",dose-dependently increased
same,"exposure in heart, jejunum, spleen, liver and bone marrow compared to plasma",[1]; i.v. 20 mg/kg on day 59 post first treatment,twice as high as in plasma
same,Tmax,"[1]; nude (Harlan), rat, iv, single i.v. injection 20 mg/kg, liver",5 min
same,Tmax,"[1]; nude (Harlan), rat, iv, single i.v. injection 20 mg/kg, plasma",5 min
same,Tmax,"[1]; nude (Harlan), rat, iv, single i.v. injection 20 mg/kg, tumor",60 min
same,Tmax,"[1]; nude (Harlan), rat, single oral 27 mg/kg, all matrices (plasma, tumor and liver)",180 min
same,AUC(0-t),"[1]; nude (Harlan), rat, single oral 27 mg/kg, plasma, read-out: AUC0-144 h",112 µM·h
same,exposure in tumor compared to plasma,[1]; single i.v. injection 20 mg/kg,two times higher
same,AUC0-144 h dn,"[1]; single i.v. injection 20 mg/kg, tumor",16.5 nmol·h/g
same,AUC0-144 h,"[1]; single oral 27 mg/kg, tumor",277.7 nmol·h/g
same,p21 mRNA expression in tumor,"Cdkn1 a (p21); after first p.o. treatment, 20 and 27 mg/kg",dose-dependently increased
same,p21 mRNA expression increase in tumor,Cdkn1 a (p21); after first single i.v. treatment 20 mg/kg,more than 50 fold
same,p21 mRNA expression max,"Cdkn1 a (p21); single i.v. 20 mg/kg, 24 h post treatment, tumor",200 fold
same,p21 mRNA induction Emax,"Cdkn1 a (p21); single oral 27 mg/kg, 48 h post treatment, tumor",180 fold
